Source: US5530126A, “Process for the preparation of substituted 6-(pyrazol-3yl)-1,4-benzoxazin-3-ones” (Monsanto Company, priority 1994, dated 1996)

What was measured:
Assay type in all cases: in vivo
Wild buckwheat [1] = test: Post-emergence herbicide test; details: Fallopia convolvulus, read-out: % plant inhibition (Wibw); for inhibition at 1120 g/ha: 1.12 kg/ha; for inhibition at 11210 g/ha: 11.21 kg/ha
In short: (§1)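 Post-emergence greenhouse spray: 2–3-wk-old plants in soil pans; atomizer at 170.3 kPa (10 psig); 1870 L/Ha carrier volume, ~0.4% v/v emulsifier. Read-out is % inhibition vs control at 10–14 d (usually 11 d), occasionally also 24–28 d.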

Indian Mustard [2] = test: Post-emergence herbicide test; details: Brassica juncea, read-out: % plant inhibition (Inmu); for inhibition at 1120 g/ha: 1.12 kg/ha; for inhibition at 11210 g/ha: 11.21 kg/ha
In short: as §1

Cocklebur [3] = test: Post-emergence herbicide test; details: Xanthium strumarium, read-out: % plant inhibition (Cobu); for inhibition at 1120 g/ha: 1.12 kg/ha; for inhibition at 11210 g/ha: 11.21 kg/ha
In short: as §1

Velvetleaf [4] = test: Post-emergence herbicide test; details: Abutilon theophrasti, read-out: % plant inhibition (Vele); for inhibition at 1120 g/ha: 1.12 kg/ha; for inhibition at 11210 g/ha: 11.21 kg/ha
In short: as §1

Downy Brome [5] = test: Post-emergence herbicide test; details: Bromus tectorum, read-out: % plant inhibition (Dobr); for inhibition at 1120 g/ha: 1.12 kg/ha; for inhibition at 11210 g/ha: 11.21 kg/ha
In short: as §1

Barnyardgrass [6] = test: Post-emergence herbicide test; details: Echinochloa crus-galli, read-out: % plant inhibition (Bygr); for inhibition at 1120 g/ha: 1.12 kg/ha; for inhibition at 11210 g/ha: 11.21 kg/ha
In short: as §1

Seedling johnsongrass [7] = test: Post-emergence herbicide test; details: Sorghum halepense, read-out: % plant inhibition (Sejg); for inhibition at 1120 g/ha: 1.12 kg/ha; for inhibition at 11210 g/ha: 11.21 kg/ha
In short: as §1

Annual bluegrass [8] = test: Post-emergence herbicide test; details: read-out: % plant inhibition (Anbg); for inhibition at 1120 g/ha: 1.12 kg/ha; for inhibition at 11210 g/ha: 11.21 kg/ha
In short: as §1

Morningglory [9] = test: Post-emergence herbicide test; details: Ipomoea, read-out: % plant inhibition (Mogl); for inhibition at 1120 g/ha: 1.12 kg/ha; for inhibition at 11210 g/ha: 11.21 kg/ha
In short: as §1

Yellow nutsedge [10] = test: Post-emergence herbicide test; details: Cyperus, read-out: % plant inhibition (Yens); for inhibition at 1120 g/ha: 1.12 kg/ha; for inhibition at 11210 g/ha: 11.21 kg/ha
In short: as §1

Wild buckwheat [11] = test: Pre-emergence herbicide test; details: Fallopia convolvulus, read-out: % plant inhibition (Wibw); for inhibition at 1120 g/ha: 1.12 kg/ha; for inhibition at 11210 g/ha: 11.21 kg/ha
In short: (§2)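 Greenhouse pans: topsoil compacted to within 0.95-1.27 cm of top, seeds laid on surface, active ingredient (organic solvent or water carrier) applied, untreated topsoil cover added. Watered from below; % inhibition at ~11 d.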

Indian Mustard [12] = test: Pre-emergence herbicide test; details: Brassica juncea, read-out: % plant inhibition (Inmu); for inhibition at 1120 g/ha: 1.12 kg/ha; for inhibition at 11210 g/ha: 11.21 kg/ha
In short: as §2

Cocklebur [13] = test: Pre-emergence herbicide test; details: Xanthium strumarium, read-out: % plant inhibition (Cobu); for inhibition at 1120 g/ha: 1.12 kg/ha; for inhibition at 11210 g/ha: 11.21 kg/ha
In short: as §2

Velvetleaf [14] = test: Pre-emergence herbicide test; details: Abutilon theophrasti, read-out: % plant inhibition (Vele); for inhibition at 1120 g/ha: 1.12 kg/ha; for inhibition at 11210 g/ha: 11.21 kg/ha
In short: as §2

Downy Brome [15] = test: Pre-emergence herbicide test; details: Bromus tectorum, read-out: % plant inhibition (Dobr); for inhibition at 1120 g/ha: 1.12 kg/ha; for inhibition at 11210 g/ha: 11.21 kg/ha
In short: as §2

Barnyardgrass [16] = test: Pre-emergence herbicide test; details: Echinochloa crus-galli, read-out: % plant inhibition (Bygr); for inhibition at 1120 g/ha: 1.12 kg/ha; for inhibition at 11210 g/ha: 11.21 kg/ha
In short: as §2

Seedling johnsongrass [17] = test: Pre-emergence herbicide test; details: Sorghum halepense, read-out: % plant inhibition (Sejg); for inhibition at 1120 g/ha: 1.12 kg/ha; for inhibition at 11210 g/ha: 11.21 kg/ha
In short: as §2

Annual bluegrass [18] = test: Pre-emergence herbicide test; details: read-out: % plant inhibition (Anbg); for inhibition at 1120 g/ha: 1.12 kg/ha; for inhibition at 11210 g/ha: 11.21 kg/ha
In short: as §2

Morningglory [19] = test: Pre-emergence herbicide test; details: Ipomoea, read-out: % plant inhibition (Mogl); for inhibition at 1120 g/ha: 1.12 kg/ha; for inhibition at 11210 g/ha: 11.21 kg/ha
In short: as §2

Yellow nutsedge [20] = test: Pre-emergence herbicide test; details: Cyperus, read-out: % plant inhibition (Yens); for inhibition at 1120 g/ha: 1.12 kg/ha; for inhibition at 11210 g/ha: 11.21 kg/ha
In short: as §2

Cn1nc(-c2cc(C(C)(C)C#N)c(Cl)cc2F)c(Cl)c1C(F)(F)F [Compound 103]
inhibition at 1120 g/ha (Wild buckwheat [1]): 100% | inhibition at 1120 g/ha (Indian Mustard [2]): 70% | inhibition at 1120 g/ha (Cocklebur [3]): 60% | inhibition at 1120 g/ha (Velvetleaf [4]): 100% | inhibition at 1120 g/ha (Downy Brome [5]): 30% | inhibition at 1120 g/ha (Barnyardgrass [6]): 80% | inhibition at 1120 g/ha (Seedling johnsongrass [7]): 70% | inhibition at 1120 g/ha (Annual bluegrass [8]): 40% | inhibition at 1120 g/ha (Morningglory [9]): 80% | inhibition at 1120 g/ha (Yellow nutsedge [10]): 10% | inhibition at 1120 g/ha (Wild buckwheat [11]): 100% | inhibition at 1120 g/ha (Indian Mustard [12]): 40% | inhibition at 1120 g/ha (Cocklebur [13]): 0% | inhibition at 1120 g/ha (Velvetleaf [14]): 50% | inhibition at 1120 g/ha (Downy Brome [15]): 70% | inhibition at 1120 g/ha (Barnyardgrass [16]): 20% | inhibition at 1120 g/ha (Seedling johnsongrass [17]): 40% | inhibition at 1120 g/ha (Annual bluegrass [18]): 20% | inhibition at 1120 g/ha (Morningglory [19]): 60% | inhibition at 1120 g/ha (Yellow nutsedge [20]): 0%

Cn1nc(C(F)F)c(Cl)c1-c1cc(F)ccc1F [Compound 62]
inhibition at 11210 g/ha (Wild buckwheat [1]): 0% | inhibition at 11210 g/ha (Indian Mustard [2]): 0% | inhibition at 11210 g/ha (Cocklebur [3]): 0% | inhibition at 11210 g/ha (Velvetleaf [4]): 10% | inhibition at 11210 g/ha (Downy Brome [5]): 0% | inhibition at 11210 g/ha (Barnyardgrass [6]): 0% | inhibition at 11210 g/ha (Seedling johnsongrass [7]): 0% | inhibition at 11210 g/ha (Annual bluegrass [8]): 0% | inhibition at 11210 g/ha (Morningglory [9]): 0% | inhibition at 11210 g/ha (Yellow nutsedge [10]): 0% | inhibition at 11210 g/ha (Wild buckwheat [11]): 20% | inhibition at 11210 g/ha (Indian Mustard [12]): 20% | inhibition at 11210 g/ha (Cocklebur [13]): 0% | inhibition at 11210 g/ha (Velvetleaf [14]): 60% | inhibition at 11210 g/ha (Downy Brome [15]): 0% | inhibition at 11210 g/ha (Barnyardgrass [16]): 20% | inhibition at 11210 g/ha (Seedling johnsongrass [17]): 30% | inhibition at 11210 g/ha (Annual bluegrass [18]): 0% | inhibition at 11210 g/ha (Morningglory [19]): 30% | inhibition at 11210 g/ha (Yellow nutsedge [20]): 0%

CC(C)OC(=O)COCc1cc(-c2nn(C)c(C(F)(F)F)c2Cl)c(F)cc1Cl [Compound 119]
inhibition at 11210 g/ha (Wild buckwheat [1]): 100% | inhibition at 11210 g/ha (Indian Mustard [2]): 100% | inhibition at 11210 g/ha (Cocklebur [3]): 100% | inhibition at 11210 g/ha (Velvetleaf [4]): 100% | inhibition at 11210 g/ha (Downy Brome [5]): 100% | inhibition at 11210 g/ha (Barnyardgrass [6]): 100% | inhibition at 11210 g/ha (Seedling johnsongrass [7]): 100% | inhibition at 11210 g/ha (Annual bluegrass [8]): 100% | inhibition at 11210 g/ha (Morningglory [9]): 100% | inhibition at 11210 g/ha (Yellow nutsedge [10]): 20% | inhibition at 11210 g/ha (Wild buckwheat [11]): 100% | inhibition at 11210 g/ha (Indian Mustard [12]): 100% | inhibition at 11210 g/ha (Cocklebur [13]): 100% | inhibition at 11210 g/ha (Velvetleaf [14]): 100% | inhibition at 11210 g/ha (Downy Brome [15]): 80% | inhibition at 11210 g/ha (Barnyardgrass [16]): 100% | inhibition at 11210 g/ha (Seedling johnsongrass [17]): 80% | inhibition at 11210 g/ha (Annual bluegrass [18]): 10% | inhibition at 11210 g/ha (Morningglory [19]): 100% | inhibition at 11210 g/ha (Yellow nutsedge [20]): 70%

CC(C)COC(=O)c1cc(-c2nn(C)c(C(F)(F)F)c2Cl)c(F)cc1Cl [Compound 139]
inhibition at 1120 g/ha (Wild buckwheat [1]): 100% | inhibition at 1120 g/ha (Indian Mustard [2]): 100% | inhibition at 1120 g/ha (Cocklebur [3]): 90% | inhibition at 1120 g/ha (Velvetleaf [4]): 100% | inhibition at 1120 g/ha (Downy Brome [5]): 100% | inhibition at 1120 g/ha (Barnyardgrass [6]): 100% | inhibition at 1120 g/ha (Seedling johnsongrass [7]): 100% | inhibition at 1120 g/ha (Annual bluegrass [8]): 90% | inhibition at 1120 g/ha (Morningglory [9]): 100% | inhibition at 1120 g/ha (Yellow nutsedge [10]): 10% | inhibition at 1120 g/ha (Wild buckwheat [11]): 90% | inhibition at 1120 g/ha (Indian Mustard [12]): 90% | inhibition at 1120 g/ha (Cocklebur [13]): 70% | inhibition at 1120 g/ha (Velvetleaf [14]): 100% | inhibition at 1120 g/ha (Downy Brome [15]): 80% | inhibition at 1120 g/ha (Barnyardgrass [16]): 30% | inhibition at 1120 g/ha (Seedling johnsongrass [17]): 40% | inhibition at 1120 g/ha (Annual bluegrass [18]): 20% | inhibition at 1120 g/ha (Morningglory [19]): 70% | inhibition at 1120 g/ha (Yellow nutsedge [20]): 20%

C#CCOc1cc(-c2c(Cl)c(C(F)(F)F)nn2C)c(F)cc1Cl [Compound 76]
inhibition at 1120 g/ha (Wild buckwheat [1]): 100% | inhibition at 1120 g/ha (Indian Mustard [2]): 70% | inhibition at 1120 g/ha (Cocklebur [3]): 40% | inhibition at 1120 g/ha (Velvetleaf [4]): 90% | inhibition at 1120 g/ha (Downy Brome [5]): 30% | inhibition at 1120 g/ha (Barnyardgrass [6]): 50% | inhibition at 1120 g/ha (Seedling johnsongrass [7]): 40% | inhibition at 1120 g/ha (Annual bluegrass [8]): 40% | inhibition at 1120 g/ha (Morningglory [9]): 50% | inhibition at 1120 g/ha (Yellow nutsedge [10]): 10% | inhibition at 1120 g/ha (Wild buckwheat [11]): 100% | inhibition at 1120 g/ha (Indian Mustard [12]): 60% | inhibition at 1120 g/ha (Cocklebur [13]): 20% | inhibition at 1120 g/ha (Velvetleaf [14]): 50% | inhibition at 1120 g/ha (Downy Brome [15]): 10% | inhibition at 1120 g/ha (Barnyardgrass [16]): 0% | inhibition at 1120 g/ha (Seedling johnsongrass [17]): 0% | inhibition at 1120 g/ha (Annual bluegrass [18]): 10% | inhibition at 1120 g/ha (Morningglory [19]): 40% | inhibition at 1120 g/ha (Yellow nutsedge [20]): 0%
